Tested on: Sweetpotato whitefly (Bemisia tabaci)
Test: Action on Sweetpotato whitefly (Bemisia tabaci) on soybean plants, greenhouse foliar spray
Type: in vivo
Details: for Mean whitefly nymph response (Whitefly Nymphs D.A.A.-2): dose 60 ppm a.i. (text: 60 g a.i./ha, 200 L/ha), two applications 7 days apart, whole plant counts 3 days after 2nd application, greenhouse
Protocol: The active compound tested was formulated as a SL-type formulation.
Action on Sweetpotato whitefly (Bemisia tabaci)
A randomized block, 2 by 3 factorial experimental design was utilized to determine the interaction effects and main effects of two explanatory variables: product rate and soybean variety on the response variable, whitefly mortality. The study was conducted under greenhouse conditions and utilized lntacta™ (Bt-traited) and ‘BMX Potencia’ (non-traited) varieties at growth stage 11, respectively. All study plants were infested with Bemisia tabaciadults prior to application.
Formulated material of compound I-1 was combined with water and applied at concentration of 60 gai/ha with a CO2 pressurized spray boom at 200 L/ha water volume. The first application was timed to a threshold whitefly infestation, and was followed by a second application 7 days later.
Assessments were conducted by taking whole plant counts of adult and immature whiteflies at 3 days after the second application.

Q: How did the “Effect against whiteflies in Intacta soybean relative to BMX Potencia” value (60 g a.i./ha, 3 days after second application, Intacta vs BMX Potencia soybean) turn out when `CCN(C(=O)c1cnn(C(C)C(C)C)c1C)c1ccnnc1` (stereo not drawn) [I-1, 1-(1,2-dimethylpropyl)-N-ethyl-5-methyl-N-pyridazin-4-yl-pyrazole-4-carboxamide] was run?
A: The value was “synergistic effect”.

Q: What about the “Mean whitefly nymph response (Whitefly Nymphs D.A.A.-2)” value (BMX Potencia (non-traited) soybean) of the same compound?
A: Its value is 4.91.

Q: What about the “Mean whitefly nymph response (Whitefly Nymphs D.A.A.-2)” value (Intacta (Bt-traited) soybean) of the same compound?
A: The value was 0.57.
